Measurements taken from PubChem BioAssay AID248 (DTP/NCI, 2004).
Where “and” joins values, the source holds several entries; their conditions need not be identical. Equal values may be shown once. Toxic doses and inconclusive results are not listed.

Test system: L1210 leukemia ip in BDF1 mice, survival T/C
Test: NCI In Vivo Anticancer Drug Screen. Data for tumor model L1210 Leukemia (intraperitoneal) in B6D2F1 (BDF1) mice
Details: endpoint: mean survival time, higher = longer survival
Method in brief: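 Each compound was tested against a transplantable tumor grown in mice. The endpoint was survival, with treated animals benchmarked against vehicle controls as a simple ratio.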

[1] = dose: 100.0 mg/kg/injection, schedule: Q01DX009 (ip), vehicle: Klucel (hydroxypropylcellulose) (HPC)
[2] = dose: 200.0 mg/kg/injection, schedule: Q01DX009 (ip), vehicle: Klucel (hydroxypropylcellulose) (HPC)
[3] = dose: 400.0 mg/kg/injection, schedule: Q01DX009 (ip), vehicle: Klucel (hydroxypropylcellulose) (HPC)
[4] = dose: 100.0 mg/kg/injection, schedule: Q01DX009 (ip), vehicle: saline with Tween-80
[5] = dose: 100.0 mg/kg/injection, schedule: Q04DX003 (ip), vehicle: saline with Tween-80
[6] = dose: 200.0 mg/kg/injection, schedule: Q01DX009 (ip), vehicle: saline with Tween-80
[7] = dose: 200.0 mg/kg/injection, schedule: Q04DX003 (ip), vehicle: saline with Tween-80
[8] = dose: 400.0 mg/kg/injection, schedule: Q01DX009 (ip), vehicle: saline with Tween-80
[9] = dose: 400.0 mg/kg/injection, schedule: Q04DX003 (ip), vehicle: saline with Tween-80
[10] = dose: 100.0 mg/kg/injection, schedule: Q01DX001 (ip), vehicle: saline
[11] = dose: 200.0 mg/kg/injection, schedule: Q01DX001 (ip), vehicle: saline
[12] = dose: 100.0 mg/kg/injection, schedule: Q04DX003 (ip), vehicle: saline
[13] = dose: 200.0 mg/kg/injection, schedule: Q04DX003 (ip), vehicle: saline
[14] = dose: 400.0 mg/kg/injection, schedule: Q04DX003 (ip), vehicle: saline
[15] = dose: 400.0 mg/kg/injection, schedule: Q01DX001 (ip), vehicle: saline
[16] = dose: 100.0 mg/kg/injection, schedule: Q01DX001 (ip), vehicle: Klucel (hydroxypropylcellulose) (HPC)
[17] = dose: 200.0 mg/kg/injection, schedule: Q01DX001 (ip), vehicle: Klucel (hydroxypropylcellulose) (HPC)
[18] = dose: 400.0 mg/kg/injection, schedule: Q01DX001 (ip), vehicle: Klucel (hydroxypropylcellulose) (HPC)
[19] = dose: 100.0 mg/kg/injection, schedule: Q04DX003 (ip), vehicle: Klucel (hydroxypropylcellulose) (HPC)
[20] = dose: 200.0 mg/kg/injection, schedule: Q04DX003 (ip), vehicle: Klucel (hydroxypropylcellulose) (HPC)
[21] = dose: 400.0 mg/kg/injection, schedule: Q04DX003 (ip), vehicle: Klucel (hydroxypropylcellulose) (HPC)
[22] = dose: 100.0 mg/kg/injection, schedule: Q04DX002 (ip), vehicle: Klucel (hydroxypropylcellulose) (HPC)
[23] = dose: 200.0 mg/kg/injection, schedule: Q04DX002 (ip), vehicle: Klucel (hydroxypropylcellulose) (HPC)
[24] = dose: 400.0 mg/kg/injection, schedule: Q04DX002 (ip), vehicle: Klucel (hydroxypropylcellulose) (HPC)

SMILES: COc1cc(C(=O)Nc2ccc(C3=NCCN3)cc2)cc(C(=O)Nc2ccc(C3=NCCN3)cc2)c1
- T/C (dose: 30.0 mg/kg/injection, schedule: Q01DX Z (ip), vehicle: saline): 211 % of control
- T/C (dose: 60.0 mg/kg/injection, schedule: Q01DX Z (ip), vehicle: saline): 275 % of control
- T/C (dose: 60.0 mg/kg/injection, schedule: Q01DX Z (oral), vehicle: saline): 114 % of control
- T/C (dose: 120.0 mg/kg/injection, schedule: Q01DX Z (ip), vehicle: saline): 151 % of control
- T/C (dose: 120.0 mg/kg/injection, schedule: Q01DX Z (oral), vehicle: saline): 119 % of control
- T/C (dose: 240.0 mg/kg/injection, schedule: Q01DX Z (oral), vehicle: saline): 101 % of control
- T/C (dose: 480.0 mg/kg/injection, schedule: Q01DX Z (oral), vehicle: saline): 100 % of control

SMILES: O=C1OC(c2cccc(Cl)c2)=N/C1=C\c1cccc2ccccc12
- T/C [1]: 90 % of control
- T/C [2]: 90 % of control
- T/C [3]: 96 % of control

SMILES: CCCCCCCCCCCCCCCC(=O)Nc1ccc(Cl)cc1
- T/C (dose: 100.0 mg/kg/injection, schedule: Q04DX002 (ip), vehicle: saline with Tween-80): 94 % of control
- T/C (dose: 200.0 mg/kg/injection, schedule: Q04DX002 (ip), vehicle: saline with Tween-80): 94 % of control
- T/C (dose: 400.0 mg/kg/injection, schedule: Q04DX002 (ip), vehicle: saline with Tween-80): 97 % of control

SMILES: NOCC(=O)O
- T/C (dose: 5.0 mg/kg/injection, schedule: Q01DX Z (ip), vehicle: saline): 112 % of control
- T/C (dose: 8.0 mg/kg/injection, schedule: Q01DX Z (ip), vehicle: saline): 97 % of control
- T/C (dose: 12.0 mg/kg/injection, schedule: Q01DX Z (ip), vehicle: saline): 103 % of control
- T/C (dose: 12.5 mg/kg/injection, schedule: Q01DX001 (ip), vehicle: carboxymethylcellulose (CMC)): 106 % of control
- T/C (dose: 18.0 mg/kg/injection, schedule: Q01DX Z (ip), vehicle: saline): 103 % of control
- T/C (dose: 25.0 mg/kg/injection, schedule: Q01DX001 (ip), vehicle: carboxymethylcellulose (CMC)): 97 % of control
- T/C (dose: 50.0 mg/kg/injection, schedule: Q01DX001 (ip), vehicle: carboxymethylcellulose (CMC)): 95 % of control

SMILES: CCOC(=O)c1c[nH]c2c(OC)cccc2c1=O
- T/C [4]: 102 % of control
- T/C [5]: 98 % of control
- T/C [6]: 88 % of control
- T/C [7]: 98 % of control
- T/C [8]: 97 % of control
- T/C [9]: 109 % of control

SMILES: Nc1[nH]nc2nc(-c3ccccc3)cnc12
- T/C (dose: 25.0 mg/kg/injection, schedule: Q01DX009 (ip), vehicle: saline with Tween-80): 121 % of control
- T/C (dose: 50.0 mg/kg/injection, schedule: Q01DX009 (ip), vehicle: saline with Tween-80): 110 % of control
- T/C [4]: 95 % of control and 102 % of control
- T/C [5]: 94 % of control
- T/C [7]: 92 % of control
- T/C [9]: 92 % of control

SMILES: Cc1cc(Cl)cc(CN(C)C)c1O.[Cu+2]
- T/C (dose: 50.0 mg/kg/injection, schedule: Q01DX001 (ip), vehicle: saline): 97 % of control
- T/C [10]: 97 % of control
- T/C [11]: 113 % of control

SMILES: O=C(O)COC1CCC(Cl)CC1 (stereo unspecified)
- T/C [4]: 106 % of control
- T/C (dose: 100.0 mg/kg/injection, schedule: Q04DX003 (ip), vehicle: acetone): 101 % of control
- T/C [6]: 94 % of control
- T/C (dose: 200.0 mg/kg/injection, schedule: Q04DX003 (ip), vehicle: acetone): 95 % of control
- T/C [8]: 96 % of control
- T/C (dose: 400.0 mg/kg/injection, schedule: Q04DX003 (ip), vehicle: acetone): 91 % of control

SMILES: O=[N+]([O-])c1ccc(/C=C/c2ccc([N+](=O)[O-])cc2S(=O)(=O)O)c(S(=O)(=O)O)c1
- T/C [12]: 94 % of control
- T/C [13]: 96 % of control
- T/C [14]: 96 % of control

SMILES: CCOC(=O)C/C(=C/c1ccco1)C(=O)OCC
- T/C [10]: 86 % of control
- T/C [12]: 89 % of control
- T/C [11]: 92 % of control
- T/C [13]: 96 % of control
- T/C [15]: 89 % of control
- T/C [14]: 89 % of control

SMILES: Cc1nnnn1-c1ccc([N+](=O)[O-])cc1
- T/C [5]: 101 % of control
- T/C [7]: 101 % of control
- T/C [9]: 93 % of control

SMILES: c1ccc2cc(C3OCCCO3)ccc2c1
- T/C [16]: 94 % of control
- T/C [17]: 100 % of control
- T/C [18]: 100 % of control

SMILES: CCNCC(=O)Nc1ccccc1C(=O)OCC
- T/C (dose: 222.0 mg/kg/injection, schedule: Q01DX Z (ip), vehicle: saline): 113 % of control
- T/C (dose: 333.0 mg/kg/injection, schedule: Q01DX Z (ip), vehicle: saline): 102 % of control

SMILES: CCOC(=O)CC(=O)NCCc1cccc(OC)c1OC
- T/C [12]: 93 % of control
- T/C [13]: 90 % of control
- T/C [14]: 93 % of control

SMILES: CCCCC1(CC)COC(C)(CCc2ccc(OC)cc2)OC1 (stereo unspecified)
- T/C (dose: 100.0 mg/kg/injection, schedule: Q01DX001 (ip), vehicle: acetone): 93 % of control
- T/C (dose: 200.0 mg/kg/injection, schedule: Q01DX001 (ip), vehicle: acetone): 93 % of control
- T/C (dose: 400.0 mg/kg/injection, schedule: Q01DX001 (ip), vehicle: acetone): 90 % of control

SMILES: Cc1nc(Cl)cc(Cl)n1
- T/C [19]: 90 % of control
- T/C [20]: 90 % of control
- T/C [21]: 97 % of control

SMILES: CC(=O)Nc1ccc(F)c(F)c1
- T/C [22]: 98 % of control
- T/C [23]: 113 % of control
- T/C [24]: 121 % of control

SMILES: NC(N)=Nc1cccc(OCCCOc2ccccc2)c1
- T/C (dose: 150.0 mg/kg/injection, schedule: Q01DX001 (ip), vehicle: saline with Tween-80): 88 % of control
- T/C (dose: 300.0 mg/kg/injection, schedule: Q01DX001 (ip), vehicle: saline with Tween-80): 94 % of control

SMILES: COc1ccc(CCC(C(=O)O)c2ccc(OC)c(OC)c2)cc1OC (stereo unspecified)
- T/C (dose: 45.0 mg/kg/injection, schedule: Q01DX009 (ip), vehicle: Klucel (hydroxypropylcellulose) (HPC)): 98 % of control and 100 % of control
- T/C (dose: 50.0 mg/kg/injection, schedule: Q04DX003 (ip), vehicle: Klucel (hydroxypropylcellulose) (HPC)): 96 % of control
- T/C (dose: 65.0 mg/kg/injection, schedule: Q01DX009 (ip), vehicle: Klucel (hydroxypropylcellulose) (HPC)): 93 % of control and 100 % of control
- T/C [1]: 94 % of control and 104 % of control
- T/C [19]: 103 % of control
- T/C (dose: 150.0 mg/kg/injection, schedule: Q01DX009 (ip), vehicle: Klucel (hydroxypropylcellulose) (HPC)): 93 % of control and 102 % of control
- T/C [2]: 106 % of control
- T/C [20]: 93 % of control and 96 % of control
- T/C [3]: 101 % of control
- T/C [21]: 98 % of control

SMILES: CC1(C)CC(=O)C=C(N)C1
- T/C [5]: 97 % of control
- T/C [7]: 92 % of control
- T/C [9]: 95 % of control

SMILES: CCOC(=O)c1cc2nc(C(C)C)n(Cc3ccccc3)c2cc(C(=O)OCC)c1=O
- T/C [16]: 96 % of control
- T/C [1]: 104 % of control and 89 % of control
- T/C [22]: 98 % of control and 105 % of control
- T/C [19]: 97 % of control
- T/C [17]: 91 % of control
- T/C [2]: 97 % of control and 89 % of control
- T/C [23]: 96 % of control
- T/C [20]: 100 % of control
- T/C [18]: 100 % of control
- T/C [3]: 98 % of control
- T/C [24]: 88 % of control and 89 % of control
- T/C [21]: 100 % of control

SMILES: COc1ccccc1NC(=O)C(N=Nc1ccc(S(=O)(=O)Nc2onc(C)c2C)cc1)C(C)=O (stereo unspecified)
- T/C (dose: 75.0 mg/kg/injection, schedule: Q01DX001 (ip), vehicle: saline): 92 % of control
- T/C (dose: 150.0 mg/kg/injection, schedule: Q01DX001 (ip), vehicle: saline): 94 % of control
- T/C (dose: 300.0 mg/kg/injection, schedule: Q01DX001 (ip), vehicle: saline): 87 % of control

SMILES: Cc1nnnn1C
- T/C [10]: 95 % of control
- T/C [12]: 105 % of control
- T/C [11]: 108 % of control
- T/C [13]: 107 % of control
- T/C [15]: 97 % of control
- T/C [14]: 88 % of control
